These results are taken from DBAASP.

≈ marks a conversion by molar mass, not a printed value. Where “and” joins values, the source holds several entries; their conditions need not be identical. Identical values can stand only once. Where only a bound is given, the exact number is not on record here.

What all share (assay): ≥ marks a high value that may be exact or a test limit, other limits are often not marked, values filed in µg/mL are converted to µM
Assay [1] concerns Salmonella enterica subsp. enterica serovar Typhimurium ATCC 14028.
For assay [2], the system named is Azotobacter vinelandii.
Assay [3] relates to Escherichia coli ATCC 25922.
In assay [4] the test system is Salmonella typhimurium.
For assay [5], the system named is Enterobacter cloacae 2524.
Assay [6] concerns Streptococcus pneumoniae ATCC 49619.
In assay [7] the test system is Acinetobacter baumannii.
Assay [8] has as its system Pseudomonas aeruginosa 4677.
Assay [9] concerns Klebsiella pneumoniae 913.
For assay [10], the system named is Escherichia coli 170.
Assay [11] relates to Klebsiella pneumoniae 1625.
Assay [12] concerns Escherichia coli 4530.
In assay [13] the test system is Staphylococcus aureus ATCC 25923.
Assay [14] has as its system Pseudomonas aeruginosa ATCC 27853.
In assay [15] the test system is Klebsiella pneumoniae ST258.
Assay [16] concerns Enterobacter cloacae 6780.
Assay [17] deals with Staphylococcus aureus IFO 12732.
For assay [18], the system named is Pseudomonas aeruginosa IFO 12582.
The test system of assay [19] is Bacillus subtilis IFO 3134.
For assay [20], the system named is Escherichia coli IFO 12734.
The test system of assay [21] is Escherichia coli W160-37.
For assay [22], the system named is Staphylococcus aureus.
Assay [23] relates to Listeria monocytogenes ATCC 19111.
For assay [24], the system named is Staphylococcus aureus A170.
Assay [25] has as its system Staphylococcus epidermidis.
For assay [26], the system named is Proteus vulgaris ATCC 49132.
Assay [27] relates to Candida albicans ATCC 37092.
Assay [28] concerns Staphylococcus aureus ATCC 29213.
Assay [29] has as its system Klebsiella oxytoca ATCC 49131.
Assay [30] has as its system Candida tropicalis ATCC 37097.
For assay [31], the system named is Micrococcus luteus A270.
Assay [32] deals with Aspergillus fumigatus.
Assay [33] concerns Escherichia coli D22.
For assay [34], the system named is Neurospora crassa CBS 327-54.

`CC(C)[C@H](NC(=O)[C@H](CCCCN)NC(=O)[C@@H](NC(=O)[C@@H](NC(=O)[C@H](CCC(=O)O)NC(=O)[C@H](CC(N)=O)NC(=O)[C@H](CCC(=O)O)NC(=O)[C@H](CCCCN)NC(=O)[C@H](CC(=O)O)NC(=O)[C@H](CC(=O)O)NC(=O)[C@H](CCC(=O)O)NC(=O)[C@H](CCC(=O)O)NC(=O)[C@H](CCC(=O)O)NC(=O)[C@@H](NC(=O)[C@H](CCCCN)NC(=O)[C@H](CC(=O)O)NC(=O)[C@H](CC(=O)O)NC(=O)[C@@H](N)CC(=O)O)[C@@H](C)O)[C@@H](C)O)[C@@H](C)O)C(=O)N[C@H](C(=O)N[C@@H](CCC(=O)O)C(=O)O)C(C)C` [DDDKTEEEDDKENETTKVVE]: the MIC in [1] was 42.3 µM (≈ 100 µg/mL); in assay [2], not below 84.6 µM.

For the compound `CC[C@H](C)[C@H](NC(=O)CN)C(=O)N[C@@H](CC(C)C)C(=O)N[C@@H](CCCCN)C(=O)N[C@H](C(=O)N[C@H](C(=O)N[C@@H](CCCCN)C(=O)N[C@@H](CO)C(=O)N[C@H](C(=O)N[C@@H](C)C(=O)N[C@@H](CO)C(=O)N[C@@H](CCCCN)C(=O)N[C@@H](CC(C)C)C(=O)N[C@@H](CCCCN)C(=O)N[C@@H](CCCN=C(N)N)C(=O)N[C@@H](CCCCN)C(=O)N[C@@H](C)C(=O)N[C@@H](CCCCN)C(=O)O)[C@@H](C)CC)[C@@H](C)CC)[C@@H](C)O` [GILKTIKSIASKLKRKAK], the MIC in [3] is 1.56 µM (≈ 3.09 µg/mL); in [4] it was 1.6 µM (≈ 3.17 µg/mL); in assay [5], not below 50 µM; in assay [6], not below 50 µM; in assay [7], 2.21 µM (≈ 4.38 µg/mL); in assay [8], 25 µM (≈ 49.6 µg/mL). Besides, the MIC was 3.12 µM (≈ 6.19 µg/mL) in assay [9]; 1.56 µM (≈ 3.09 µg/mL) in [10]; 1.56 µM (≈ 3.09 µg/mL) in [11]; 25 µM (≈ 49.6 µg/mL) in [12]; more than 25.2 µM in [13]; more than 25.2 µM in assay [14]. The results for the MIC in assay [15] and in [16] were 25.2 µM (≈ 50 µg/mL) and 3.12 µM (≈ 6.19 µg/mL), respectively.

As for `CC[C@H](C)[C@H](NC(=O)[C@H](C)NC(=O)[C@@H]1CCCN1C(=O)[C@@H](NC(=O)[C@@H](NC(=O)[C@H](Cc1cnc[nH]1)NC(=O)[C@H](C)NC(=O)[C@H](C)NC(=O)[C@@H](NC(=O)[C@H](CCCCN)NC(=O)[C@H](C)NC(=O)[C@H](CC(C)C)NC(=O)[C@@H](NC(=O)CNC(=O)[C@H](Cc1ccccc1)NC(=O)[C@H](CC(C)C)NC(=O)CN)C(C)C)C(C)C)C(C)C)C(C)C)C(=O)N[C@@H](C)C(=O)N[C@@H](CCCCN)C(=O)N[C@@H](Cc1cnc[nH]1)C(=O)N[C@@H](Cc1ccccc1)C(N)=O` [GLFGVLAKVAAHVVPAIAKHF], the MIC in assay [17] was 4 µM (≈ 8.58 µg/mL); in assay [18], not below 32 µM; in [19] it was 4 µM (≈ 8.58 µg/mL); in assay [20], 16 µM (≈ 34.3 µg/mL).

Take `CC[C@H](C)[C@H](N)C(=O)N[C@@H](CC(C)C)C(=O)N1CCC[C@H]1C(=O)N[C@@H](Cc1c[nH]c2ccccc12)C(=O)N[C@@H](CCCCN)C(=O)N[C@@H](CC(C)C)C(=O)N1CCC[C@H]1C(=O)N[C@@H](CC(C)C)C(=O)N[C@@H](CC(C)C)C(=O)N1CCC[C@H]1C(=O)N[C@@H](CC(C)C)C(=O)N[C@@H](CCCN=C(N)N)C(=O)N[C@@H](CCCN=C(N)N)C(N)=O` [ILPWKLPLLPLRR]: the MIC in assay [21] is 9.29 µM (≈ 15 µg/mL); in assay [22], 6.19 µM (≈ 9.99 µg/mL).

In assay [23], `CSCC[C@H](NC(=O)CNC(=O)[C@@H](NC(=O)[C@@H]1CCCN1C(=O)[C@H](CCSC)NC(=O)CNC(=O)[C@H](CC(N)=O)NC(=O)[C@H](CC(N)=O)NC(=O)[C@H](Cc1ccc(O)cc1)NC(=O)[C@@H](NC(=O)[C@H](CCCN=C(N)N)NC(=O)[C@H](CS)NC(=O)[C@H](CCCN=C(N)N)NC(=O)[C@H](Cc1cnc[nH]1)NC(=O)[C@H](CCCCN)NC(=O)[C@H](CCCCN)NC(=O)[C@H](CCCN=C(N)N)NC(=O)[C@@H](N)CCCCN)C(C)C)[C@@H](C)O)C(=O)N[C@@H](Cc1ccc(O)cc1)C(=O)N[C@@H](CCCN=C(N)N)C(=O)N[C@@H](Cc1c[nH]c2ccccc12)C(=O)N[C@@H](CS)C(=O)O` [KRKKHRCRVYNNGMPTGMYRWC] showed an MIC of 8 µM (≈ 22.3 µg/mL).

With `CC[C@H](C)[C@H](NC(=O)[C@@H]1CCCN1C(=O)[C@H](CC(C)C)NC(=O)[C@@H](N)CC(C)C)C(=O)N[C@H](C(=O)N[C@@H](C)C(=O)N[C@@H](CC(N)=O)C(=O)N[C@@H](CC(C)C)C(=O)N[C@@H](CC(C)C)C(=O)N[C@@H](CCCCN)C(=O)N[C@@H](C)C(=O)N[C@@H](CC(C)C)C(=O)N[C@@H](CC(C)C)C(=O)O)C(C)C` [LLPIVANLLKALL], the MIC in assay [24] stood at 3.6 µM (≈ 5 µg/mL); in [25] it was 7.19 µM (≈ 10 µg/mL).

Regarding `CC(C)C[C@H](NC(=O)[C@H](CCCN=C(N)N)NC(=O)[C@H](CCCN=C(N)N)NC(=O)[C@H](Cc1ccc(O)cc1)NC(=O)[C@H](CC(C)C)NC(=O)[C@@H](N)CCCN=C(N)N)C(=O)N[C@@H](Cc1ccc(O)cc1)C(=O)N[C@@H](CCCN=C(N)N)C(N)=O` [RLYRRLYR], the MIC in [3] is 39 µM and 33.6 µM; in assay [26], 10.2 µM and 18.4 µM; in [27] it was 9 µM and 17.4 µM; in [28] it was 8.1 µM and 17.5 µM; in assay [29], 14.1 µM and 13.1 µM; in [14] it was 4.1 µM and 8.7 µM. In addition, in assay [30], the MIC was 1.4 µM and 3.2 µM.

For `CSCC[C@H](NC(=O)[C@H](CO)NC(=O)[C@@H](N)CO)C(=O)N[C@@H](CCCCN)C(=O)N[C@@H](CC(C)C)C(=O)N[C@@H](CO)C(=O)N[C@@H](Cc1ccccc1)C(=O)N[C@@H](CCCN=C(N)N)C(=O)N[C@@H](C)C(=O)N[C@@H](CCCN=C(N)N)C(=O)N[C@@H](C)C(=O)N[C@@H](Cc1ccc(O)cc1)C(=O)N[C@@H](CO)C(=O)N[C@@H](Cc1ccccc1)C(=O)N[C@@H](CCCN=C(N)N)C(=O)NCC(=O)N1CCC[C@H]1C(=O)NCC(=O)N1CCC[C@H]1C(=O)N[C@@H](CCC(N)=O)C(=O)N[C@@H](CC(C)C)C(=O)O` [SSMKLSFRARAYSFRGPGPQL], the MIC in assay [31] was 2 µM (≈ 4.71 µg/mL); in assay [32], not below 80 µM; in assay [33], not below 40 µM; in [34], 5 µM (≈ 11.8 µg/mL).

A word on the MIC: it is the lowest concentration found to suppress growth. A higher MIC goes with weaker potency.
